Assay results from US12312625B2, “Engineering strain producing cordycepin and its derivative 3′-deoxyinosine, its preparation method and application” (DALIAN UNIVERSITY, priority 2022, dated 2025).

Test system: Pichia pastoris GS115 strain
Experiment: Cordycepin tolerance test (growth curves of yeast in YPD medium with cordycepin)
Format: cell-based
Settings: 30° C., biomass measured every 2h, FIG. 5
Source text: In order to detect the tolerance of yeast strains to cordycepin, the inventor thus provides a method of detecting the tolerance of yeast strains to cordycepin. The Pichia pastoris GS115 strain is activated and inoculated into a 96-deep porous plate containing YPD medium, with the inoculation concentration at about OD600=0.4, supplemented with the cordycepin solutions under different concentrations (0.1, 1.0, 2.0, 5.0 g·L^−1). The broth without cordycepin is used as the control, and the porous plate is placed into BioScreene, cultured by shaking at constant temperature of 30° C., and the biomass of the strain is measured every 2h. Triplicates are set in each group, and an average value of the triplicate is calculated to draw a growth curve of yeast strains under the effect of different concentrations of cordycepin. […] As mentioned above, the cordycepin yield has exceeded 2.0 g/L, so the stress tolerance of the strain needs to be considered.

Compound: Nc1ncnc2c1ncn2[C@@H]1O[C@H](CO)C[C@H]1O [cordycepin]
- growth of yeast strains (YPD medium containing 2-5 g/L cordycepin): severely inhibited
- growth of yeast strains (YPD medium, 1 g/L cordycepin): slight impact
- growth of yeast strains (YPD medium, cordycepin below 0.1 g/L): almost has no effect
